Measurements taken from PubChem BioAssay (NCI).
“And” between values parts separate entries of the source, which are not always exact repeats. Equal entries are not always repeated.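 1) Cells in 96-well plates. 2) Compound, 48 h, 5 concentrations. 3) Linear interpolation between surrounding doses. 4) Unreached endpoint = highest concentration. At the GI50, growth is halved. The concentration for full growth arrest is given as TGI.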

Legend:
Assay in all cases: growth of human tumour cells (NCI), 48 h
KM20L2 colon = system: KM20L2 colon
SF-295 CNS = system: SF-295 CNS
SK-MEL-28 melanoma = system: SK-MEL-28 melanoma
MALME-3M melanoma = system: MALME-3M melanoma
DMS 273 small cell lung = system: DMS 273 small cell lung
CAKI-1 renal = system: CAKI-1 renal
HCT-15 colon = system: HCT-15 colon
MDA-MB-435 = system: MDA-MB-435
MDA-MB-231 breast = system: MDA-MB-231 breast
MCF7 breast = system: MCF7 breast

SMILES | TGI (KM20L2 colon) | TGI (SF-295 CNS) | TGI (SK-MEL-28 melanoma) | TGI (MALME-3M melanoma) | TGI (DMS 273 small cell lung) | TGI (CAKI-1 renal) | TGI (HCT-15 colon) | GI50 (MDA-MB-435) | TGI (MDA-MB-435) | GI50 (MDA-MB-231 breast) | TGI (MDA-MB-231 breast) | GI50 (SF-295 CNS) | GI50 (MCF7 breast) | TGI (MCF7 breast) | GI50 (SK-MEL-28 melanoma) | GI50 (MALME-3M melanoma) | GI50 (CAKI-1 renal) | GI50 (HCT-15 colon)
N[C@H](C(=O)O)[C@@H](Cl)CC(=O)O | > 100 µM | > 100 µM | > 100 µM | > 100 µM | > 100 µM | > 100 µM | > 100 µM | – | – | – | – | – | – | – | – | – | – | –
CS(=O)(=O)Nc1cc(-c2ccc3ncnc(Nc4cccc(Cl)c4F)c3c2)cnc1Cl | – | 12.5 µM | 9.27 µM | 7.66 µM | – | 12.6 µM | 14.5 µM | 4.73 µM | 21.9 µM | 2100 nM | 8.06 µM | 2470 nM | 624 nM | 20.1 µM | 1.59 µM | 1.83 µM | 1820 nM | 2780 nM
N=C1C(c2nc(-c3ccc(Br)cc3)cs2)=C(O)CN1CC1CCCO1 (stereo not drawn) | – | > 100 µM | > 100 µM | > 100 µM | – | > 100 µM | > 100 µM | > 100 µM | > 100 µM | > 100000 nM | > 100 µM | > 100000 nM | > 100000 nM | > 100 µM | > 100 µM | > 100 µM | > 100000 nM | > 100000 nM
O=[N+]([O-])c1ccc(NC(=S)N/N=C(\c2ccccc2)c2ccccn2)cc1 | – | 3.5 µM and 2.98 µM | 2.9 µM and 2.69 µM | 3.52 µM | – | 3.02 µM and 2.97 µM | 2.71 µM | – | 3.15 µM and 3.17 µM | 28.6 nM | 2.06 µM and 1.86 µM | 1870 nM | 39.3 nM | 1.55 µM and 2.75 µM | 1.38 µM | – | 1360 nM | –
CCCCCCCCCCCCCCC(O)C1CCC(C(O)CCC(O)CCCCCC(O)CC2=CC(C)OC2=O)O1 (stereo not drawn) | 18.3 µM | 10.3 µM | 10.1 µM | 13.6 µM | 4.75 µM | 20.8 µM | 5.25 µM | – | – | – | – | – | – | – | – | – | – | –
O=C1C2=C(c3ccccc31)C(c1ccc(Cl)cc1)NC(=S)N2 (stereo not drawn) | 37.4 µM | 29.9 µM | 34.1 µM | 79.4 µM | 42.8 µM | 78.3 µM | 35.9 µM | – | – | – | – | – | – | – | – | – | – | –
COc1cc(C(=O)C/C(CCC(=O)Nc2ccc(Cl)cc2Cl)=N/Nc2nnc(C)n2N)ccc1O | > 100 µM | > 100 µM | > 100 µM | > 100 µM | > 100 µM | > 100 µM | > 100 µM | – | – | – | – | – | – | – | – | – | – | –
CC(C)(O)CCC(O)C(C)(O)C1CCC2(O)C3=CC(=O)C4(O)CC(O)C(O)CC4(C)C3CCC12C (stereo not drawn) (tested in a mixture with another compound) | – | > 100 µM | > 100 µM | > 100 µM | – | > 100 µM | > 100 µM | – | > 100 µM | – | > 100 µM | – | – | > 100 µM | – | – | – | –
CCC(=O)OC1=CN2C(=NC(c3ccc(N)cc3)=CC2c2cc(OC)c(OC)c(OC)c2)S1 (stereo not drawn) | – | 13.1 µM | 18.3 µM | 16.3 µM | – | 11.2 µM | 29.6 µM | 2.98 µM | 14.1 µM | 4390 nM | 21.3 µM | 3480 nM | 2860 nM | 14.4 µM | 5.54 µM | 4 µM | 2910 nM | 2470 nM
N#Cc1c(NCc2ccccc2)nc(NCc2ccccc2)c(C#N)c1-c1cccc(O)c1 | – | 13.2 µM | > 100 µM | 32.5 µM | – | 19.4 µM | 33.7 µM | 2.91 µM | 9.97 µM | 2230 nM | 7.34 µM | 2920 nM | 12700 nM | 88.4 µM | 61 µM | 10.1 µM | 2770 nM | 4330 nM
O=c1cccccc1NCCNc1cccccc1=O | > 100 µM | > 100 µM | – | 47.9 µM | > 100 µM | > 100 µM | > 100 µM | – | – | – | – | – | – | – | – | – | – | –
O=C(Nc1ccccc1C(=O)O)C(=O)C(C(=O)c1ccccc1-c1ccccc1)C1OC(=O)c2ccccc21 (stereo not drawn) | 44 µM | 53.5 µM | 35.1 µM | 28.6 µM | 95.3 µM | > 100 µM | 30.6 µM | – | – | – | – | – | – | – | – | – | – | –
C[C@@H](c1ccccc1)N(CC#N)C1CCC[C@H]1O (stereo partly drawn) | > 100 µM | > 100 µM | > 100 µM | > 100 µM | > 100 µM | – | > 100 µM | – | – | – | – | – | – | – | – | – | – | –
O=C(Nc1ccc(-c2ccnc(Nc3ccc(N4CCOCC4)cc3)n2)cc1)C1CCCN1 (stereo not drawn) | – | 20.4 µM | 22.3 µM | 23.1 µM | – | 17.7 µM | 18.9 µM | 6.39 µM | 21.5 µM | 7770 nM | 23.1 µM | 4180 nM | 4510 nM | 21.4 µM | 8.95 µM | 6.71 µM | 3290 nM | 639 nM
